From US9358247B2, “Methods and compositions for promoting activity of anti-cancer therapies” (Oncology Research International Limited, priority 2006, dated 2016)

Key:
HT29 human cells = experiment: In vivo tumour volume, HT29 cells subcutaneously introduced into mice, 5-fluorouracil and deltonin; set-up: species or system Balb/c nude female mice
Excerpt: 5-Fluorouracil (5FU) is the principal chemotherapeutic drug used in treating colon cancer; it is most commonly co-administered with other chemotherapeutic agents. This study compared the co-administration of 5-fluoruracil and deltonin, with administration of mono-administration of both 5-fluorourcil and deltonin.
72 female Balb/c nude female mice were microchipped, weighed and randomised based on body weight into 8 groups with 9 mice per group. […]
HT29 human […] carcinoma cells were cultured in RPMI1640 cell culture medium, which was supplemented with 10% FBS and penicillin-streptomycin (50 IU/mL final concentration). The cells were harvested by trypsinisation, washed twice in HBSS and counted. The cells were then resuspended in HBSS and adjusted to a final volume containing 2×10^7 cells/mL. For inoculation, the needle was introduced through the skin into the subcutaneous space just below the right shoulder, where 100 μL of cells (2×10^6) were discharged.
When the tumour volumes had reached an average of greater than 200 mm^3, treatment was started (Day 0). Tumour volumes were measured 3-times weekly, and determined according to the formula: V(mm^3)=length×diameter^2×π/6
Treatment was continued for 17 days. The mean tumour volumes for each dosage regime are given in Table 24 and are presented graphically in FIG. 1: […]

A549 cell line = experiment: Cancer cell growth inhibition, SRB dye assay (single agents and 50:50 IC50 mixtures); type: cell-based, human; conditions: Homo sapiens, 144 h, Example 4, value used to make up 50:50 IC50 mixtures, read-out: IC50 values used in assay
Method: Cancer cells were seeded the day before application of drug in triplicate or quadruplicate in 96-well plates, allowed to grow in the presence of drug for 6 days before cell growth relative to untreated control wells was determined with a dye assay.
Cells were seeded in triplicate or quadruplicate at 3-4,000 per microtitre well in 90 μl of RPMI culture medium/10% foetal calf serum/penicillin, streptomycin mix, treated with 10 μl of drug (prepared in a dilution plate at 10× concentration required), and allowed to grow until the controls were nearly confluent (6 days).
SRB: Plates were washed with PBS, fixed with methylated spirits, washed with tap water and stained with 50 μL/well of SRB solution (sulforhodamine, 0.4% in 1% acetic acid), followed by washing with tap water and 1% acetic acid, solubilisation in Tris and absorbance read at 564 nm in an ELISA reader.
Data was collected using ELISA plate reader software—SOFTmax PRO3.1.2, then imported into EXCEL. The mean and SD of replicates were calculated as a % of control, after subtraction of the blank value (wells with no cells). A graph was plotted of % control vs dose of agent and IC50 (half maximal inhibitory concentration) values determined.
(§1) Tumour cells were seeded in duplicate in 96-well plates at 2-5,000 per microtitre well containing RPMI culture medium/10% foetal calf serum. The cells were allowed to grow until the controls were nearly confluent after 5-6 days. Plates were then washed with PBS, fixed in ethanol and stained with 50 μL/well of SRB solution (sulforhodamine, 0.4% in 1% acetic acid), followed by washing with 1% acetic acid and solubilisation in Tris. The absorbance was read at 564 nm using an ELISA reader.
(§2) The IC50, or concentration required to inhibit cell growth by 50%, was determined from the percentage inhibition versus concentration data using the probit calculation methods of Finney (Finney D J (1971). Probit Analysis. 3rd Edition. Cambridge University Press).
The inhibitory data from each mixture was used to determine an IC50 of IC50 value, where the concentrations used were the Multiplying Factor values. In order to determine the actual IC50 contribution of each component in the two-component mixture, the IC50 of IC50 value was multiplied by the IC50 of the individual component. This can then be used to determine the reduction in IC50 contribution (ie, reduction in dose) of the chemotherapeutic agent due to the presence of the steroid saponin in the mixture. A simpler way of determining the reduction in dose is to use the following simple formula: […]

[1] = test system: PC3, DU145, A549 and HT29 cell lines; experiment: Cancer cell growth inhibition, IC50 values used in assay for four cell lines (Example 5); type: cell-based, human; conditions: Homo sapiens, value used to make up 50:50 IC50 mixtures
Method: as §1, §2
The cell seeding and ELISA plate methodology of Example 2 were used for determining inhibition of four cancer cell lines. IC50 values were determined for the steroid saponins dioscin, deltonin and prosapogenin A, and their mixtures with cisplatin, docetaxel, doxorubicin and vincristine, using PC3, DU145, A549 and HT29 cell lines.

## C[C@@H]1CC[C@@]2(OC1)O[C@H]1C[C@H]3[C@@H]4CC=C5C[C@@H](O[C@@H]6O[C@H](CO)[C@@H](O[C@@H]7O[C@H](CO)[C@@H](O)[C@H](O)[C@H]7O)[C@H](O)[C@H]6O[C@@H]6O[C@@H](C)[C@H](O)[C@@H](O)[C@H]6O)CC[C@]5(C)[C@H]4CC[C@]3(C)[C@H]1[C@@H]2C [Deltonin, diosgenin Rha2, [Glc4], Glc]
HT29 human cells; Deltonin 1.65 mg/kg daily, Day 0
  Mean tumour volume: 236 mm^3
HT29 human cells; Deltonin 1.65 mg/kg daily, Day 2
  Mean tumour volume: 260 mm^3
HT29 human cells; Deltonin 1.65 mg/kg daily, Day 4
  Mean tumour volume: 299 mm^3
HT29 human cells; Deltonin 1.65 mg/kg daily, Day 7
  Mean tumour volume: 294 mm^3
HT29 human cells; Deltonin 1.65 mg/kg daily, Day 9
  Mean tumour volume: 350 mm^3
HT29 human cells; Deltonin 1.65 mg/kg daily, Day 11
  Mean tumour volume: 462 mm^3
HT29 human cells; Deltonin 1.65 mg/kg daily, Day 14
  Mean tumour volume: 594 mm^3
HT29 human cells; Deltonin 1.65 mg/kg daily, Day 16
  Mean tumour volume: 644 mm^3
HT29 human cells; Deltonin 1.65 mg/kg daily, Day 18
  Mean tumour volume: 776 mm^3
HT29 human cells; Deltonin 3.3 mg/kg daily, Day 0
  Mean tumour volume: 236 mm^3
HT29 human cells; Deltonin 3.3 mg/kg daily, Day 2
  Mean tumour volume: 242 mm^3
HT29 human cells; Deltonin 3.3 mg/kg daily, Day 4
  Mean tumour volume: 271 mm^3
HT29 human cells; Deltonin 3.3 mg/kg daily, Day 7
  Mean tumour volume: 331 mm^3
HT29 human cells; Deltonin 3.3 mg/kg daily, Day 9
  Mean tumour volume: 413 mm^3
HT29 human cells; Deltonin 3.3 mg/kg daily, Day 11
  Mean tumour volume: 489 mm^3
HT29 human cells; Deltonin 3.3 mg/kg daily, Day 14
  Mean tumour volume: 558 mm^3
HT29 human cells; Deltonin 3.3 mg/kg daily, Day 16
  Mean tumour volume: 742 mm^3
HT29 human cells; Deltonin 3.3 mg/kg daily, Day 18
  Mean tumour volume: 842 mm^3
HT29 human cells; Deltonin 6.6 mg/kg daily, Day 0
  Mean tumour volume: 235 mm^3
HT29 human cells; Deltonin 6.6 mg/kg daily, Day 2
  Mean tumour volume: 233 mm^3
HT29 human cells; Deltonin 6.6 mg/kg daily, Day 4
  Mean tumour volume: 265 mm^3
HT29 human cells; Deltonin 6.6 mg/kg daily, Day 7
  Mean tumour volume: 310 mm^3
HT29 human cells; Deltonin 6.6 mg/kg daily, Day 9
  Mean tumour volume: 399 mm^3
HT29 human cells; Deltonin 6.6 mg/kg daily, Day 11
  Mean tumour volume: 490 mm^3
HT29 human cells; Deltonin 6.6 mg/kg daily, Day 14
  Mean tumour volume: 588 mm^3
HT29 human cells; Deltonin 6.6 mg/kg daily, Day 16
  Mean tumour volume: 671 mm^3
HT29 human cells; Deltonin 6.6 mg/kg daily, Day 18
  Mean tumour volume: 692 mm^3
A549 cell line
  IC50: 1000 nM
[1]
  IC50: 1000 nM
